{"source": "paper PMC12102759", "about": "(Protein Science : A Publication of the Protein Society, 2025)", "test_system": "G3BP1 NFT2", "type": "binding, human", "details": "library DMS-CoV, bait G3BP1 NFT2, prey N, listed as aa = residue placed at this position, column sums to 1", "note": "Like-named read-outs stand apart in the source and are kept apart here."}
{"sequence": "APRITFGGPSDSTGSN S10P (APRITFGGPPDSTGSN)", "values": [{"measurement": "DMS PSSM value, S (position 10)", "setting": "peptide APRITFGGPSDSTGSN", "result": 0.1036}]}
{"sequence": "APRITFGGPSDSTGSN S15V (APRITFGGPSDSTGVN)", "values": [{"measurement": "DMS PSSM value, S (position 15)", "setting": "peptide APRITFGGPSDSTGSN", "result": 0.03856}]}
{"sequence": "APRITFGGPSDSTGSN R3I (APIITFGGPSDSTGSN)", "values": [{"measurement": "DMS PSSM value, R (position 3)", "setting": "peptide APRITFGGPSDSTGSN", "result": 0.2843}]}
{"sequence": "APRITFGGPSDSTGSN G8K (APRITFGKPSDSTGSN)", "values": [{"measurement": "DMS PSSM value, G (position 8)", "setting": "peptide APRITFGGPSDSTGSN", "result": 0}]}
{"sequence": "APRITFGGPSDSTGSN R3A (APAITFGGPSDSTGSN)", "values": [{"measurement": "DMS PSSM value, R (position 3)", "setting": "peptide APRITFGGPSDSTGSN", "result": 0.0016}]}
{"sequence": "APRITFGGPSDSTGSN T5M (APRIMFGGPSDSTGSN)", "values": [{"measurement": "DMS PSSM value, T (position 5)", "setting": "peptide APRITFGGPSDSTGSN", "result": 0}]}
{"sequence": "APRITFGGPSDSTGSN D11V (APRITFGGPSVSTGSN)", "values": [{"measurement": "DMS PSSM value, D (position 11)", "setting": "peptide APRITFGGPSDSTGSN", "result": 0.02861}]}
{"sequence": "RNAPRITFGGPSDSTG I6V (RNAPRVTFGGPSDSTG)", "values": [{"measurement": "DMS PSSM value, I (position 6)", "setting": "peptide RNAPRITFGGPSDSTG", "result": 0.768}]}
{"sequence": "APRITFGGPSDSTGSN S15I (APRITFGGPSDSTGIN)", "values": [{"measurement": "DMS PSSM value, S (position 15)", "setting": "peptide APRITFGGPSDSTGSN", "result": 0.3514}]}
{"sequence": "APRITFGGPSDSTGSN S10E (APRITFGGPEDSTGSN)", "values": [{"measurement": "DMS PSSM value, S (position 10)", "setting": "peptide APRITFGGPSDSTGSN", "result": 0.06961}]}
{"sequence": "APRITFGGPSDSTGSN G7Y (APRITFYGPSDSTGSN)", "values": [{"measurement": "DMS PSSM value, G (position 7)", "setting": "peptide APRITFGGPSDSTGSN", "result": 0}]}
{"sequence": "RNAPRITFGGPSDSTG A3W (RNWPRITFGGPSDSTG)", "values": [{"measurement": "DMS PSSM value, A (position 3)", "setting": "peptide RNAPRITFGGPSDSTG", "result": 0}]}
{"sequence": "RNAPRITFGGPSDSTG P4Q (RNAQRITFGGPSDSTG)", "values": [{"measurement": "DMS PSSM value, P (position 4)", "setting": "peptide RNAPRITFGGPSDSTG", "result": 0.08846}]}
{"sequence": "APRITFGGPSDSTGSN S15G (APRITFGGPSDSTGGN)", "values": [{"measurement": "DMS PSSM value, S (position 15)", "setting": "peptide APRITFGGPSDSTGSN", "result": 0.002342}]}
{"sequence": "RNAPRITFGGPSDSTG T7K (RNAPRIKFGGPSDSTG)", "values": [{"measurement": "DMS PSSM value, T (position 7)", "setting": "peptide RNAPRITFGGPSDSTG", "result": 0}]}
{"sequence": "APRITFGGPSDSTGSN R3M (APMITFGGPSDSTGSN)", "values": [{"measurement": "DMS PSSM value, R (position 3)", "setting": "peptide APRITFGGPSDSTGSN", "result": 0.03758}]}
{"sequence": "APRITFGGPSDSTGSN P2L (ALRITFGGPSDSTGSN)", "values": [{"measurement": "DMS PSSM value, P (position 2)", "setting": "peptide APRITFGGPSDSTGSN", "result": 0}]}
{"sequence": "APRITFGGPSDSTGSN I4Q (APRQTFGGPSDSTGSN)", "values": [{"measurement": "DMS PSSM value, I (position 4)", "setting": "peptide APRITFGGPSDSTGSN", "result": 0}]}
{"sequence": "RNAPRITFGGPSDSTG P4I (RNAIRITFGGPSDSTG)", "values": [{"measurement": "DMS PSSM value, P (position 4)", "setting": "peptide RNAPRITFGGPSDSTG", "result": 0}]}
{"sequence": "RNAPRITFGGPSDSTG F8G (RNAPRITGGGPSDSTG)", "values": [{"measurement": "DMS PSSM value, F (position 8)", "setting": "peptide RNAPRITFGGPSDSTG", "result": 0}]}
{"sequence": "RNAPRITFGGPSDSTG S12F (RNAPRITFGGPFDSTG)", "values": [{"measurement": "DMS PSSM value, S (position 12)", "setting": "peptide RNAPRITFGGPSDSTG", "result": 0}]}
{"sequence": "APRITFGGPSDSTGSN G14K (APRITFGGPSDSTKSN)", "values": [{"measurement": "DMS PSSM value, G (position 14)", "setting": "peptide APRITFGGPSDSTGSN", "result": 0.00039}]}
{"sequence": "RNAPRITFGGPSDSTG G16F (RNAPRITFGGPSDSTF)", "values": [{"measurement": "DMS PSSM value, G (position 16)", "setting": "peptide RNAPRITFGGPSDSTG", "result": 0}]}
{"sequence": "APRITFGGPSDSTGSN I4R (APRRTFGGPSDSTGSN)", "values": [{"measurement": "DMS PSSM value, I (position 4)", "setting": "peptide APRITFGGPSDSTGSN", "result": 0}]}
{"sequence": "RNAPRITFGGPSDSTG P4Y (RNAYRITFGGPSDSTG)", "values": [{"measurement": "DMS PSSM value, P (position 4)", "setting": "peptide RNAPRITFGGPSDSTG", "result": 0}]}
{"sequence": "APRITFGGPSDSTGSN D11S (APRITFGGPSSSTGSN)", "values": [{"measurement": "DMS PSSM value, D (position 11)", "setting": "peptide APRITFGGPSDSTGSN", "result": 0.01892}]}
{"sequence": "APRITFGGPSDSTGSN T13I (APRITFGGPSDSIGSN)", "values": [{"measurement": "DMS PSSM value, T (position 13)", "setting": "peptide APRITFGGPSDSTGSN", "result": 0.0005621}]}
{"sequence": "APRITFGGPSDSTGSN I4T (APRTTFGGPSDSTGSN)", "values": [{"measurement": "DMS PSSM value, I (position 4)", "setting": "peptide APRITFGGPSDSTGSN", "result": 0}]}
{"sequence": "RNAPRITFGGPSDSTG I6Q (RNAPRQTFGGPSDSTG)", "values": [{"measurement": "DMS PSSM value, I (position 6)", "setting": "peptide RNAPRITFGGPSDSTG", "result": 0}]}
{"sequence": "APRITFGGPSDSTGSN A1Q (QPRITFGGPSDSTGSN)", "values": [{"measurement": "DMS PSSM value, A (position 1)", "setting": "peptide APRITFGGPSDSTGSN", "result": 0.01117}]}
{"sequence": "RNAPRITFGGPSDSTG S14Y (RNAPRITFGGPSDYTG)", "values": [{"measurement": "DMS PSSM value, S (position 14)", "setting": "peptide RNAPRITFGGPSDSTG", "result": 0}]}
{"sequence": "RNAPRITFGGPSDSTG F8D (RNAPRITDGGPSDSTG)", "values": [{"measurement": "DMS PSSM value, F (position 8)", "setting": "peptide RNAPRITFGGPSDSTG", "result": 0}]}
{"sequence": "RNAPRITFGGPSDSTG S14V (RNAPRITFGGPSDVTG)", "values": [{"measurement": "DMS PSSM value, S (position 14)", "setting": "peptide RNAPRITFGGPSDSTG", "result": 0}]}
{"sequence": "APRITFGGPSDSTGSN F6T (APRITTGGPSDSTGSN)", "values": [{"measurement": "DMS PSSM value, F (position 6)", "setting": "peptide APRITFGGPSDSTGSN", "result": 0}]}
{"sequence": "RNAPRITFGGPSDSTG T15I (RNAPRITFGGPSDSIG)", "values": [{"measurement": "DMS PSSM value, T (position 15)", "setting": "peptide RNAPRITFGGPSDSTG", "result": 1}]}
{"sequence": "RNAPRITFGGPSDSTG I6T (RNAPRTTFGGPSDSTG)", "values": [{"measurement": "DMS PSSM value, I (position 6)", "setting": "peptide RNAPRITFGGPSDSTG", "result": 0}]}
{"sequence": "RNAPRITFGGPSDSTG S12W (RNAPRITFGGPWDSTG)", "values": [{"measurement": "DMS PSSM value, S (position 12)", "setting": "peptide RNAPRITFGGPSDSTG", "result": 0}]}
{"sequence": "RNAPRITFGGPSDSTG G9M (RNAPRITFMGPSDSTG)", "values": [{"measurement": "DMS PSSM value, G (position 9)", "setting": "peptide RNAPRITFGGPSDSTG", "result": 0}]}
{"sequence": "APRITFGGPSDSTGSN G8P (APRITFGPPSDSTGSN)", "values": [{"measurement": "DMS PSSM value, G (position 8)", "setting": "peptide APRITFGGPSDSTGSN", "result": 0.001619}]}
{"sequence": "APRITFGGPSDSTGSN S15W (APRITFGGPSDSTGWN)", "values": [{"measurement": "DMS PSSM value, S (position 15)", "setting": "peptide APRITFGGPSDSTGSN", "result": 0.00112}]}
{"sequence": "RNAPRITFGGPSDSTG R5Y (RNAPYITFGGPSDSTG)", "values": [{"measurement": "DMS PSSM value, R (position 5)", "setting": "peptide RNAPRITFGGPSDSTG", "result": 0.03289}]}
{"sequence": "APRITFGGPSDSTGSN S12T (APRITFGGPSDTTGSN)", "values": [{"measurement": "DMS PSSM value, S (position 12)", "setting": "peptide APRITFGGPSDSTGSN", "result": 0.00392}]}
{"sequence": "RNAPRITFGGPSDSTG S12H (RNAPRITFGGPHDSTG)", "values": [{"measurement": "DMS PSSM value, S (position 12)", "setting": "peptide RNAPRITFGGPSDSTG", "result": 0}]}
{"sequence": "APRITFGGPSDSTGSN T5A (APRIAFGGPSDSTGSN)", "values": [{"measurement": "DMS PSSM value, T (position 5)", "setting": "peptide APRITFGGPSDSTGSN", "result": 0}]}
{"sequence": "RNAPRITFGGPSDSTG T15S (RNAPRITFGGPSDSSG)", "values": [{"measurement": "DMS PSSM value, T (position 15)", "setting": "peptide RNAPRITFGGPSDSTG", "result": 0}]}
{"sequence": "RNAPRITFGGPSDSTG S14D (RNAPRITFGGPSDDTG)", "values": [{"measurement": "DMS PSSM value, S (position 14)", "setting": "peptide RNAPRITFGGPSDSTG", "result": 0}]}
{"sequence": "APRITFGGPSDSTGSN T13H (APRITFGGPSDSHGSN)", "values": [{"measurement": "DMS PSSM value, T (position 13)", "setting": "peptide APRITFGGPSDSTGSN", "result": 0.0006139}]}
{"sequence": "RNAPRITFGGPSDSTG A3I (RNIPRITFGGPSDSTG)", "values": [{"measurement": "DMS PSSM value, A (position 3)", "setting": "peptide RNAPRITFGGPSDSTG", "result": 0}]}
{"sequence": "APRITFGGPSDSTGSN G14L (APRITFGGPSDSTLSN)", "values": [{"measurement": "DMS PSSM value, G (position 14)", "setting": "peptide APRITFGGPSDSTGSN", "result": 0.0229}]}
{"sequence": "APRITFGGPSDSTGSN G7D (APRITFDGPSDSTGSN)", "values": [{"measurement": "DMS PSSM value, G (position 7)", "setting": "peptide APRITFGGPSDSTGSN", "result": 0}]}
{"sequence": "RNAPRITFGGPSDSTG F8E (RNAPRITEGGPSDSTG)", "values": [{"measurement": "DMS PSSM value, F (position 8)", "setting": "peptide RNAPRITFGGPSDSTG", "result": 0}]}
